Among the test systems are A549 NSCLC; HCC-2998 colon; HCT-15 colon; HOP-62 NSCLC; HOP-92 NSCLC; IGROV1 ovarian; LOX IMVI melanoma; OVCAR-8 ovarian; SF-295 CNS; SK-MEL-2 melanoma; SK-MEL-28 melanoma; SK-OV-3 ovarian; SR leukemia; SW-620 colon; U251 CNS; UO-31 renal; HOP-18 NSCLC; LXFL 529 NSCLC; RXF-631 renal; SNB-78 CNS.
What all share (test): NCI anticancer screen, dose series, 48 h

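Exposure lasted 48 hours, with cells grown in 96-well plates and compounds tested at five concentrations. At the TGI there is no net growth.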

Consider `CC1(C)N=C(/C(Cl)=[N+](/[O-])C(=O)c2ccc(Cl)cc2)C(C)(C)N1O`, for which the TGI in the experiment on A549 NSCLC was above 100 µM; with HCC-2998 colon it was 63 µM; with HCT-15 colon, 35.8 µM; in the experiment with HOP-62 NSCLC, above 100 µM; in the experiment with HOP-92 NSCLC it was 31.4 µM; with IGROV1 ovarian it was above 100 µM. The TGI was 20.4 µM in the experiment on LOX IMVI melanoma; 45.3 µM in the experiment with OVCAR-8 ovarian; above 100 µM in the experiment on SF-295 CNS; above 100 µM with SK-MEL-2 melanoma; 37.3 µM in the experiment on SK-MEL-28 melanoma; above 100 µM in the experiment with SK-OV-3 ovarian. The TGI is above 100 µM in the experiment with SR leukemia, 44.9 µM with SW-620 colon, 55.5 µM in the experiment on U251 CNS and above 100 µM with UO-31 renal.
Take `Cc1ccc(NC(=O)CC/C(CC(=O)C(C)(C)C)=N/NC(=O)c2cc3ccccc3cc2O)cc1C`: the TGI in the experiment with HCC-2998 colon was 55 µM; in the experiment on HCT-15 colon, above 100 µM; in the experiment with HOP-18 NSCLC it was above 100 µM; in the experiment on HOP-62 NSCLC, above 100 µM; in the experiment on HOP-92 NSCLC it was above 100 µM; with IGROV1 ovarian, above 100 µM. Moreover, the TGI in the experiment on LOX IMVI melanoma is 62.9 µM; in the experiment on LXFL 529 NSCLC, above 100 µM; in the experiment on OVCAR-8 ovarian, above 100 µM; with RXF-631 renal it was above 100 µM; in the experiment on SF-295 CNS, above 100 µM; in the experiment on SK-MEL-2 melanoma, above 100 µM. Besides, the TGI with SK-MEL-28 melanoma, in the experiment on SK-OV-3 ovarian, in the experiment on SNB-78 CNS, with SW-620 colon, in the experiment with U251 CNS and in the experiment on UO-31 renal was above 100 µM throughout.
Take `CCC12CCC[C@@]13C=C[C@H](O3)C(C)(C)C2=O` (some centres not stated): the TGI in the experiment with A549 NSCLC, with HCC-2998 colon, with HCT-15 colon, in the experiment with HOP-18 NSCLC, with HOP-62 NSCLC and in the experiment on IGROV1 ovarian was above 100 µM throughout. Also, the TGI in the experiment with LOX IMVI melanoma, in the experiment on LXFL 529 NSCLC, in the experiment on OVCAR-8 ovarian, in the experiment on RXF-631 renal, in the experiment on SF-295 CNS and in the experiment on SK-MEL-2 melanoma was above 100 µM each time. In addition, the TGI in the experiment with SK-OV-3 ovarian, in the experiment on SNB-78 CNS, in the experiment on SR leukemia, in the experiment with SW-620 colon, with U251 CNS and in the experiment on UO-31 renal was above 100 µM each time.

(Values after PubChem BioAssay (NCI).)
